Consider 17 compounds from the supplement of paper PMC5412046.

The structures appear in SMILES notation.

For experiment [1], the system named is SB.mhdgc-1. Put plainly: viability at highest tested concentration (MAXR) relative to DMSO; higher = less cytotoxic. Conditions: SB.mhdgc-1 (hereditary c.1380delA CDH1 gastric cancer). In short, it runs like this: (§1)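 Reported here is DMSO-normalised viability, either at the highest concentration or as a trapezoidal area under the curve. Hereditary or sporadic patient-derived gastric cancer cells received compound by pintool at 11 threefold-diluted concentrations and were read with CellTiter-Glo after 48 h.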

In experiment [2] the test system is SB.msgc-1. Described as above. Conditions: SB.msgc-1 (sporadic gastric cancer). In short, it runs like this: as §1
Experiment [3] has as its system SB.mhdgc-1. Put plainly: area under the dose-response curve of % viability (trapezoidal, 11 doses) (% viability x log10 concentration); higher = less cytotoxic. Conditions: SB.mhdgc-1 (hereditary c.1380delA CDH1 gastric cancer). In short, it runs like this:
as §1

For experiment [4], the system named is SB.msgc-1. The experiment is described as above. Conditions: SB.msgc-1 (sporadic gastric cancer). In short, it runs like this: as §1

`CC[C@H](C)C(=O)O[C@H]1C[C@@H](C)\C=C2\C=C/[C@H](C)[C@H](CC[C@@H]3C[C@@H](O)CC(=O)O3)[C@@H]12` [Lovastatin] (top concentration 46.0829 µM): the viability with SB.mhdgc-1 [1] was found to be 38.2%; in the experiment on SB.msgc-1 [2], 39.6%. Besides, the results for the “area under the dose-response curve” value in the experiment on SB.mhdgc-1 [3] and in the experiment on SB.msgc-1 [4] were 460 and 351, respectively.

`Cc1cc(Nc2cc(CN3CCOCC3)c3nc(C)c(Cc4ccc(Cl)cc4F)n3n2)[nH]n1` [Gandotinib] (top concentration 46.0829 µM): the viability was determined as 23.8% with SB.mhdgc-1 [1] and 22.4% in the experiment on SB.msgc-1 [2]. Further, the “area under the dose-response curve” value in the experiment with SB.mhdgc-1 [3] is 503; with SB.msgc-1 [4], 467.

As to `CC(=O)O.Cc1c(-c2ccc(O)cc2)n(Cc2ccc(OCCN3CCCCCC3)cc2)c2ccc(O)cc12` [Bazedoxifene] (top concentration 46.0829 µM), the viability in the experiment on SB.mhdgc-1 [1] was found to be 85.4%; in the experiment on SB.msgc-1 [2], 61.8%. For the same compound, the “area under the dose-response curve” value in the experiment on SB.mhdgc-1 [3] worked out at 561; in the experiment on SB.msgc-1 [4], 293.

Take `CN1C(=O)\C(=C/C2=C1N=C(NC3CCOCC3)N=C2)OC4=C(F)C=C(F)C=C4` [R-1487] (top concentration 46.0829 µM): the viability in the experiment with SB.mhdgc-1 [1] was 81%; in the experiment on SB.msgc-1 [2] it was 61.9%. For the same compound, the “area under the dose-response curve” value turned out to be 530 in the experiment on SB.mhdgc-1 [3] and 500 in the experiment on SB.msgc-1 [4].

`COc1c(N2C[C@@H]3CCCN[C@@H]3C2)c(F)cc2c(=O)c(C(=O)O)cn(C3CC3)c12.Cl.O` [Moxifloxacin hydrochloride] (top concentration 46.0829 µM): the figures for the viability in the experiment on SB.mhdgc-1 [1] and in the experiment with SB.msgc-1 [2] were 92.9% and 67.6%, respectively. In addition, the “area under the dose-response curve” value was 560 in the experiment on SB.mhdgc-1 [3] and 507 with SB.msgc-1 [4].

`CC1(C)CCC(=C(\C1)C2=CC=C(Cl)C=C2)/CN3CCN(CC3)C4=CC(=C(C=C4)C(=O)N[S+]([O-])(=O)C5=CC=C(NCC6CCOCC6)C(=C5)[N+]([O-])=O)OC7=CN=C8[NH]C=CC8=C7` [ABT-199] (top concentration 46.0829 µM): the viability worked out at 3.26% with SB.mhdgc-1 [1] and 21.7% with SB.msgc-1 [2]. In addition, the figures for the “area under the dose-response curve” value in the experiment with SB.mhdgc-1 [3] and in the experiment with SB.msgc-1 [4] were 498 and 501, respectively.

As to `CSCC[C@H](NC(=O)[C@H](Cc1c[nH]c2ccccc12)NC(=O)CCNC(=O)OC(C)(C)C)C(=O)N[C@@H](CC(=O)O)C(=O)N[C@@H](Cc1ccccc1)C(N)=O` [Pentagastrin] (top concentration 46.0829 µM), the viability in the experiment with SB.mhdgc-1 [1] came out at 52.5%; in the experiment with SB.msgc-1 [2], 34.2%. The “area under the dose-response curve” value in the experiment with SB.mhdgc-1 [3] came to 457; with SB.msgc-1 [4], 488.

As for `CCC(c1ccc(O)cc1)C(CC)c1ccc(O)cc1` (stereo not drawn) [Hexestrol] (top concentration 46.0829 µM), the viability amounted to 71% in the experiment with SB.mhdgc-1 [1] and 54.1% in the experiment on SB.msgc-1 [2]. For the same compound, the “area under the dose-response curve” value was determined as 465 with SB.mhdgc-1 [3] and 502 with SB.msgc-1 [4].

Take `CC(C)[C@H](CO)Nc1nc(Nc2cccc(Cl)c2)c2ncn(C(C)C)c2n1` [Purvalanol A] (top concentration 46.0829 µM): the viability was 39.7% in the experiment on SB.mhdgc-1 [1] and 33.2% in the experiment on SB.msgc-1 [2]. The “area under the dose-response curve” value in the experiment on SB.mhdgc-1 [3] was found to be 332; in the experiment with SB.msgc-1 [4], 471.

`N[C@H]2CN(CC12CC1)c3c(F)cc4c(c3Cl)[N@@](C=C(C4=O)C(=O)O)C5C[C@H]5F` (stereo partly drawn) [Sitafloxacin hydrate] (top concentration 46.0829 µM): the viability in the experiment with SB.mhdgc-1 [1] was 69.5%; with SB.msgc-1 [2], 85.1%. For the same compound, the “area under the dose-response curve” value is 444 with SB.mhdgc-1 [3] and 468 in the experiment on SB.msgc-1 [4].

For `Cc1coc2c1C(=O)C(=O)c1c-2ccc2c(C)cccc12` [Tanshinone I] (top concentration 46.0829 µM), the results for the viability in the experiment with SB.mhdgc-1 [1] and with SB.msgc-1 [2] were 34.1% and 115%, respectively. The “area under the dose-response curve” value is 501 with SB.mhdgc-1 [3] and 541 with SB.msgc-1 [4].

On to `COc1ccc(-c2ccc3ncc4c(c3c2)n(-c2ccc(N3CCNCC3)c(C(F)(F)F)c2)c(=O)n4C)cn1` [NVP-BGT226] (top concentration 46.0829 µM), for which the viability worked out at 1.45% in the experiment with SB.mhdgc-1 [1] and 0.962% in the experiment with SB.msgc-1 [2]. Besides, the results for the “area under the dose-response curve” value in the experiment on SB.mhdgc-1 [3] and in the experiment on SB.msgc-1 [4] were 195 and 305, respectively.

On to `COC(=O)[C@H](Cc1ccccc1)NC(=O)[C@@H](N)CC(=O)O` [Aspartame] (top concentration 46.0829 µM), for which the viability with SB.mhdgc-1 [1] was found to be 34%; with SB.msgc-1 [2] it was 98.2%. The “area under the dose-response curve” value in the experiment on SB.mhdgc-1 [3] was 543; with SB.msgc-1 [4] it was 579.

As to `O=[S+]([O-])(/N=C/c1c(O)ccc2ccccc12)c1cccs1` (top concentration 46.0829 µM), the viability in the experiment with SB.mhdgc-1 [1] was determined as 105%; with SB.msgc-1 [2], 52.8%. In addition, the “area under the dose-response curve” value was found to be 405 with SB.mhdgc-1 [3] and 453 in the experiment on SB.msgc-1 [4].

For the compound `CC[C@@H](C(N)=O)N1CCCC1=O` [Levetiracetam] (top concentration 46.0829 µM), the viability with SB.mhdgc-1 [1] amounted to 83.4%; in the experiment with SB.msgc-1 [2], 91.5%. Further, the “area under the dose-response curve” value with SB.mhdgc-1 [3] came to 545; with SB.msgc-1 [4], 584.

In the case of `CCOc1cc(N2CCC(O)CC2)ccc1Nc1ncc2c(n1)N(C)c1ccccc1C(=O)N2C` [XMD8-92] (top concentration 46.0829 µM), the viability in the experiment with SB.mhdgc-1 [1] was 37.5%; in the experiment on SB.msgc-1 [2], 18.8%. The “area under the dose-response curve” value with SB.mhdgc-1 [3] was found to be 423; in the experiment with SB.msgc-1 [4], 464.

In the case of `N/C1=N/C(=O)C/2=C(NC[C@@H](CNC3=CC=C(C=C3)C(=O)N[C@@H](CCC([O-])=O)C([O-])=O)N2C=O)\N1` [Calcium folinate] (top concentration 46.0829 µM), the viability turned out to be 118% in the experiment with SB.mhdgc-1 [1] and 128% in the experiment with SB.msgc-1 [2]. Also, the “area under the dose-response curve” value came out at 494 with SB.mhdgc-1 [3] and 544 in the experiment with SB.msgc-1 [4].

As usually defined, the viability is a read-out of living cells in per cent, often relative to untreated cells.
